These results are taken from ChEMBL document CHEMBL4219198, “Peptidomimetic nitrile inhibitors of malarial protease falcipain-2 with high selectivity against human cathepsins” (Bioorg Med Chem Lett, 2018).

The nature of experiment [1]: Selectivity ratio of IC50 for human cathepsin S to IC50 for Plasmodium falciparum falcipain-2.
The target in experiment [2] is T1, Cysteine protease falcipain-3 (Plasmodium falciparum, UniProt Q9NAW4).
T1 sequence (Q9NAW4 whole entry): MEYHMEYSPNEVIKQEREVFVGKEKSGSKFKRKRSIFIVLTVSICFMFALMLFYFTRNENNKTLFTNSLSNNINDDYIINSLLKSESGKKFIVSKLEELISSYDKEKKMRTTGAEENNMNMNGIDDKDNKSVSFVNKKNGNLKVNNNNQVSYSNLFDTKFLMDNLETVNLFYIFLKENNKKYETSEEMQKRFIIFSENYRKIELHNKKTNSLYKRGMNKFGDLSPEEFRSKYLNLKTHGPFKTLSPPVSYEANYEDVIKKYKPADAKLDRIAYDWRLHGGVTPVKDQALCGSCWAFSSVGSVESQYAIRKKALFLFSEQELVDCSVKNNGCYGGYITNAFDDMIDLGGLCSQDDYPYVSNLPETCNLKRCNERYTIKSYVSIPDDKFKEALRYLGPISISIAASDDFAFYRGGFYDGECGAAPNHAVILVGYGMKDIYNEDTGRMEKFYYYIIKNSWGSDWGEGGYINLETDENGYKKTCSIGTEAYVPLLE
The experiment is described as follows: Inhibition of Plasmodium falciparum falcipain-3.

Another experiment concerns the target Cathepsin B (Homo sapiens, UniProt P07858). The experiment is described as follows: Inhibition of human cathepsin B.
Experiment [3] in a line: Selectivity ratio of IC50 for human cathepsin L to IC50 for Plasmodium falciparum falcipain-2.
The target in another experiment is T2, Cathepsin K (Homo sapiens, UniProt P43235).
T2 sequence (P43235 whole entry): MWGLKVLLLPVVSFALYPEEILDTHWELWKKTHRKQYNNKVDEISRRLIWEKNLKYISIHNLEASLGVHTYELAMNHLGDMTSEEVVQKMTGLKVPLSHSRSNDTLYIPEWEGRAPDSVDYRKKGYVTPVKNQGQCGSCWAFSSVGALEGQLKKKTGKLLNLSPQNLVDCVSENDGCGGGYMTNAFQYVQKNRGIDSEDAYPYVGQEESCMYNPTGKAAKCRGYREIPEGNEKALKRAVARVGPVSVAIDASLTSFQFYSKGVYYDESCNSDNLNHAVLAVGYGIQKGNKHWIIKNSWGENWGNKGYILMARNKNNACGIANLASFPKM
The experiment is described as follows: Inhibition of human cathepsin K.

Experiment [4] is described as follows: Selectivity ratio of IC50 for human cathepsin B to IC50 for Plasmodium falciparum falcipain-2.
The subject of the next experiment is Plasmodium falciparum. The experiment is described as follows: Antimalarial activity against Plasmodium falciparum infected in human erythrocytes. The format is functional, organism-based.
The target of the next experiment is Procathepsin L (Homo sapiens, UniProt P07711). In words: Inhibition of human cathepsin L.
Chain of Procathepsin L (P07711 whole entry): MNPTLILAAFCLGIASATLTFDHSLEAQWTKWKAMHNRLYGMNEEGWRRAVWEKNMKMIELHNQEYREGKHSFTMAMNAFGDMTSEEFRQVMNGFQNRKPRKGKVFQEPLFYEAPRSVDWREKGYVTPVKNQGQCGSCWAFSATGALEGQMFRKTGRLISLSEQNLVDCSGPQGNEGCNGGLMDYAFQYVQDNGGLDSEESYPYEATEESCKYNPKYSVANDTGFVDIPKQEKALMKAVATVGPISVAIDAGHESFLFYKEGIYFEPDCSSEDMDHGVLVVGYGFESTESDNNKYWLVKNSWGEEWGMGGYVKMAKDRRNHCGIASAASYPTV
For a further experiment, the target named is Cathepsin S (Homo sapiens, UniProt P25774). In words: Inhibition of human cathepsin S.
Chain of Cathepsin S (P25774 whole entry): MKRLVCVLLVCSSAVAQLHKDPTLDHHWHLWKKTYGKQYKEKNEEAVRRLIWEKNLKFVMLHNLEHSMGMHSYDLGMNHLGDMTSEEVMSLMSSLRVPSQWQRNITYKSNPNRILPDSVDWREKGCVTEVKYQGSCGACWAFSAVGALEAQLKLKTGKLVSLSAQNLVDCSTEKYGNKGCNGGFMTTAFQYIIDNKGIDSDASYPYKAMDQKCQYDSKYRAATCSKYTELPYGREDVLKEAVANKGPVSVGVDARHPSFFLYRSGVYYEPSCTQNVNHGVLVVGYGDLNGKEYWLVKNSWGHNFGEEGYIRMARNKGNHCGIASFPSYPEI
A short description of experiment [5]: Selectivity ratio of IC50 for human cathepsin K to IC50 for Plasmodium falciparum falcipain-2.
The next experiment deals with T3, Falcipain 2 (Plasmodium falciparum, UniProt Q9N6S8).
T3 sequence (Q9N6S8 whole entry): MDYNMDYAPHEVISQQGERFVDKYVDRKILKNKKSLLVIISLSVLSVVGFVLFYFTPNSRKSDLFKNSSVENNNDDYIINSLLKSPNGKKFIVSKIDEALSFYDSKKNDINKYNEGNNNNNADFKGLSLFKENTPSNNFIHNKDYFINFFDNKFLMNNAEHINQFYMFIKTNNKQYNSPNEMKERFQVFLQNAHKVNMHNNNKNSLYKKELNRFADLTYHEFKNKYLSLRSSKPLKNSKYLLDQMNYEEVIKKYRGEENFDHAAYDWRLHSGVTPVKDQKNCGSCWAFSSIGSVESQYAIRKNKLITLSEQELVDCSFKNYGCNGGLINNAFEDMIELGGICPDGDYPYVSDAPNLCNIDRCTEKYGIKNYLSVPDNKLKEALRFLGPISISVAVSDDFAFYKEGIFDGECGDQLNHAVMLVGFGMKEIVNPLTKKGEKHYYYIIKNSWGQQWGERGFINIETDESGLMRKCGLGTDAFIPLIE
The experiment is described as follows: Inhibition of Plasmodium falciparum falcipain-2.

By IC50 is commonly meant the concentration needed to halve the response being measured. Low values mean greater potency in that assay, high ones weaker potency in that assay. The EC50 is the concentration needed to bring the measured effect to its halfway point. A higher EC50 goes with weaker potency. For `N#CC1(NC(=O)[C@H](Cc2cccnc2)NC(=O)c2ccc(-c3ccccc3)cc2)CC1`, the Ratio IC50 in experiment [1] was found to be 11; in [3], 69; in [4] it was 119; in experiment [5], 9. For the same compound, the IC50 stood at 117 nM in experiment [2]; 2750 nM at Cathepsin B; 202 nM against Cathepsin K; 1590 nM at Procathepsin L; 382 nM on Cathepsin S; 23.1 nM against Falcipain 2. For the same compound, the EC50 in the experiment on Plasmodium falciparum is greater than 25000 nM.
